{
  "source": "paper PMC10759180",
  "about": "(RSC Advances, 2024)",
  "key": {"α-amylase": {"biological_target": "α-amylase", "experiment": "In vitro α-amylase inhibition assay", "format": "biochemical", "settings": "read-out: α-Amylase activity IC50 ± SEM; mean ± SEM, triplicate; iodine starch method, pH 6.8, 50 °C, 30 minutes"}, "Candida albicans": {"tested_on": "Candida albicans", "experiment": "Antifungal disc diffusion assay, Candida albicans", "format": "cell-based", "settings": "read-out: Antifungal zone of inhibition, Candida albicans"}, "urease": {"biological_target": "urease (Canavalia ensiformis, UniProt P07374)", "sequence (P07374 whole entry, looked up)": "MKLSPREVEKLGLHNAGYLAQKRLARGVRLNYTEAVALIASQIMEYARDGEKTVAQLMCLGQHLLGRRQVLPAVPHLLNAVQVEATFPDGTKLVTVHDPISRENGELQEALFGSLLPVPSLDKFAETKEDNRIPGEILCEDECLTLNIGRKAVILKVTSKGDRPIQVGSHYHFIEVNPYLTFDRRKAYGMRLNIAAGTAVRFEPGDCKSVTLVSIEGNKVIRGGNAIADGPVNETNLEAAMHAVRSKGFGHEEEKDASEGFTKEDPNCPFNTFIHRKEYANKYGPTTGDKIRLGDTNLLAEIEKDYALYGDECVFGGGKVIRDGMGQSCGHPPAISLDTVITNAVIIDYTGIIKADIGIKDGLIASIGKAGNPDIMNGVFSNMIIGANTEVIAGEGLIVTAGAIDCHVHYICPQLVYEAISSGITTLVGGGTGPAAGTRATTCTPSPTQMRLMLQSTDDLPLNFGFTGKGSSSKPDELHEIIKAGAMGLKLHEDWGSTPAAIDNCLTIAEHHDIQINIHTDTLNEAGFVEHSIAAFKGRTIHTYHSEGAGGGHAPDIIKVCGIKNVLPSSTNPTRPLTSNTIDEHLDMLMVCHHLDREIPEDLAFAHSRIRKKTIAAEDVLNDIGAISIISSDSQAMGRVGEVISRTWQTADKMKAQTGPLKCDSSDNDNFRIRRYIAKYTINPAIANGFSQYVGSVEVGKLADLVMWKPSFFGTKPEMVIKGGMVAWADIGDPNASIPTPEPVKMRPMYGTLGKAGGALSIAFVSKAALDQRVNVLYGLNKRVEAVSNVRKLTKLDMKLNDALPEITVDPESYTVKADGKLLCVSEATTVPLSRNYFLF", "settings": "read-out: Urease activity IC50 ± SEM; pH 8.2"}, "Staphylococcus aureus": {"tested_on": "Staphylococcus aureus", "experiment": "Antibacterial disc diffusion assay, Staphylococcus aureus", "format": "cell-based", "settings": "for Antibacterial zone of inhibition, Staphylococcus aureus: disc diffusion, samples 100 μM, kanamycin 10 μM, 24 hours at 37 °C"}, "Escherichia coli": {"tested_on": "Escherichia coli", "experiment": "Antibacterial disc diffusion assay, Escherichia coli", "format": "cell-based", "settings": "for Antibacterial zone of inhibition, Escherichia coli: disc diffusion, samples 100 μM, kanamycin 10 μM, 24 hours at 37 °C"}, "Bacillus subtilis": {"tested_on": "Bacillus subtilis", "experiment": "Antibacterial disc diffusion assay, Bacillus subtilis", "format": "cell-based", "settings": "samples 100 μM, kanamycin 10 μM, 24 hours at 37 °C"}, "Pseudomonas aeruginosa": {"tested_on": "Pseudomonas aeruginosa", "experiment": "Antibacterial disc diffusion assay, Pseudomonas aeruginosa", "format": "cell-based", "settings": "samples 100 μM, kanamycin 10 μM, 24 hours at 37 °C"}},
  "note": "Entries after “also recorded” stand apart in the source; their conditions may differ.",
  "data": [
    {"smiles": "Cc1ccc(C(=O)N(C(=O)c2ccc(C)cc2)C(=S)N2N=C(c3ccc(Br)cc3)CC2c2ccc(F)cc2)cc1", "note": "(stereo not shown) [Compound 5e, N-(3-(4-Bromophenyl)-5-(4-fluorophenyl)-4,5-dihydro-1H-pyrazole-1-carbonothioyl)-4-methyl-N-(4-methylbenzoyl)benzamide]", "values": [
      {"measurement": "IC50", "setting": "α-amylase", "value": "97.4 ± 1.53", "unit": "µM"}
    ]},
    {"smiles": "Cc1ccc(C(=O)N(C(=O)c2ccc(C)cc2)C(=S)N2N=C(c3ccc(Br)cc3)CC2c2cccc(F)c2)cc1", "note": "(stereo not shown) [Compound 5f, N-(3-(4-Bromophenyl)-5-(3-fluorophenyl)-4,5-dihydro-1H-pyrazole-1-carbonothioyl)-4-methyl-N-(4-methylbenzoyl)benzamide]", "values": [
      {"measurement": "IC50", "setting": "α-amylase", "value": "90.3 ± 1.08", "unit": "µM"}
    ]},
    {"smiles": "CN(C/C=C/C#CC(C)(C)C)Cc1cccc2ccccc12", "note": "[Terbinafine]", "values": [
      {"measurement": "zone of inhibition at 10 µM", "setting": "Candida albicans", "value": 20, "unit": "mm"}
    ]},
    {"smiles": "Cc1ccc(C(=O)N(C(=O)c2ccc(C)cc2)C(=S)N2N=C(c3ccccc3)CC2c2ccc(C)cc2)cc1", "note": "(stereo not shown) [Compound 5h, 4-Methyl-N-(4-methylbenzoyl)-N-(3-phenyl-5-(p-tolyl)-4,5-dihydro-1H-pyrazole-1-carbonothioyl)benzamide]", "values": [
      {"measurement": "IC50", "setting": "α-amylase", "value": "121 ± 3.75", "unit": "µM"}
    ]},
    {"smiles": "Cc1ccc(C(=O)N(C(=O)c2ccc(C)cc2)C(=S)N2N=C(c3ccc(C)cc3)CC2c2ccc(F)cc2)cc1", "note": "(stereo not shown) [Compound 5i, N-(5-(4-Fluorophenyl)-3-(p-tolyl)-4,5-dihydro-1H-pyrazole-1-carbonothioyl)-4-methyl-N-(4-methylbenzoyl)benzamide]", "values": [
      {"measurement": "IC50", "setting": "α-amylase", "value": "114.6 ± 0.28", "unit": "µM"}
    ]},
    {"smiles": "Cc1ccc(C(=O)N(C(=O)c2ccc(C)cc2)C(=S)N2N=C(c3ccc(Cl)cc3)CC2c2ccc(Cl)cc2)cc1", "note": "(stereo not shown) [Compound 5g, N-(3,5-Bis(4-chlorophenyl)-4,5-dihydro-1H-pyrazole-1-carbonothioyl)-4-methyl-N-(4-methylbenzoyl)benzamide]", "values": [
      {"measurement": "IC50", "setting": "α-amylase", "value": "131 ± 1.56", "unit": "µM"}
    ]},
    {"smiles": "NC(N)=S", "note": "[Thiourea]", "values": [
      {"measurement": "IC50", "setting": "urease", "value": "9.8 ± 0.1", "unit": "µM"}
    ]},
    {"smiles": "Cc1ccc(C(=O)N(C(=O)c2ccc(C)cc2)C(=S)N2N=C(c3ccccc3)CC2c2ccc(F)cc2)cc1", "note": "(stereo not shown) [Compound 5d, N-(5-(4-Fluorophenyl)-3-phenyl-4,5-dihydro-1H-pyrazole-1-carbonothioyl)-4-methyl-N-(4-methylbenzoyl)benzamide]", "values": [
      {"measurement": "zone of inhibition at 100 µM", "setting": "Staphylococcus aureus; Staphylococcus aureus, 24 h, read-out: Antibacterial zone of inhibition, Staphylococcus aureus", "value": 10, "unit": "mm"},
      {"measurement": "Antibacterial zone of inhibition, Staphylococcus aureus", "setting": "Staphylococcus aureus", "value": "significant antibacterial activity; also recorded: excellent bacterial inhibition zone"},
      {"measurement": "IC50", "setting": "α-amylase", "value": "104 ± 3.18", "unit": "µM"},
      {"measurement": "zone of inhibition at 100 µM", "setting": "Escherichia coli; Escherichia coli, 24 h, read-out: Antibacterial zone of inhibition, Escherichia coli", "value": 7, "unit": "mm"},
      {"measurement": "Antibacterial zone of inhibition, Escherichia coli", "setting": "Escherichia coli", "value": "significant antibacterial activity; also recorded: excellent bacterial inhibition zone"}
    ]},
    {"smiles": "Cc1ccc(C(=O)N(C(=O)c2ccc(C)cc2)C(=S)N2N=C(c3ccc(F)cc3)CC2c2ccc(F)cc2)cc1", "note": "(stereo not shown) [Compound 5a, N-(3,5-Bis(4-fluorophenyl)-4,5-dihydro-1H-pyrazole-1-carbonothioyl)-4-methyl-N-(4-methylbenzoyl)benzamide]", "values": [
      {"measurement": "IC50", "setting": "α-amylase", "value": "118.4 ± 0.64", "unit": "µM"}
    ]},
    {"smiles": "Cc1ccc(C(=O)N(C(=O)c2ccc(C)cc2)C(=S)N2N=C(c3ccc(F)cc3)CC2c2cccc(F)c2)cc1", "note": "(stereo not shown) [Compound 5b, N-(5-(3-Fluorophenyl)-3-(4-fluorophenyl)-4,5-dihydro-1H-pyrazole-1-carbonothioyl)-4-methyl-N-(4-methylbenzoyl)benzamide]", "values": [
      {"measurement": "IC50", "setting": "α-amylase", "value": "99.3 ± 0.62", "unit": "µM"}
    ]},
    {"smiles": "Cc1ccc(C(=O)N(C(=O)c2ccc(C)cc2)C(=S)N2N=C(c3ccc(C)cc3)CC2c2ccc(Cl)cc2)cc1", "note": "(stereo not shown) [Compound 5j, N-(5-(4-Chlorophenyl)-3-(p-tolyl)-4,5-dihydro-1H-pyrazole-1-carbonothioyl)-4-methyl-N-(4-methylbenzoyl)benzamide]", "values": [
      {"measurement": "IC50", "setting": "α-amylase", "value": "110 ± 1.56", "unit": "µM"}
    ]},
    {"smiles": "NC[C@H]1O[C@H](O[C@H]2[C@H](O)[C@@H](O[C@H]3O[C@H](CO)[C@@H](O)[C@H](N)[C@H]3O)[C@H](N)C[C@@H]2N)[C@H](O)[C@@H](O)[C@@H]1O", "note": "[Kanamycin, reference compound]", "values": [
      {"measurement": "Antibacterial zone of inhibition, Staphylococcus aureus", "setting": "Staphylococcus aureus", "value": 18, "unit": "mm"},
      {"measurement": "Antibacterial zone of inhibition, Bacillus subtilis", "setting": "Bacillus subtilis", "value": 22, "unit": "mm"},
      {"measurement": "Antibacterial zone of inhibition, Escherichia coli", "setting": "Escherichia coli", "value": 16, "unit": "mm"},
      {"measurement": "Antibacterial zone of inhibition, Pseudomonas aeruginosa", "setting": "Pseudomonas aeruginosa", "value": 20, "unit": "mm"}
    ]}
  ]
}
